Laboratory results from ChEMBL document CHEMBL1201862, “PubChem BioAssay data set” (2004).
Activity calls are given as the source filed them.

What was measured:
[1] = biological target: T1, High affinity choline transporter 1 (Homo sapiens, UniProt Q9GZV3); assay: human choline transporter blockers, potency – cell-based, 5-point CRC, membrane potential dye, dose response (AID 504840); assay type: functional
T1 sequence (Q9GZV3 whole entry): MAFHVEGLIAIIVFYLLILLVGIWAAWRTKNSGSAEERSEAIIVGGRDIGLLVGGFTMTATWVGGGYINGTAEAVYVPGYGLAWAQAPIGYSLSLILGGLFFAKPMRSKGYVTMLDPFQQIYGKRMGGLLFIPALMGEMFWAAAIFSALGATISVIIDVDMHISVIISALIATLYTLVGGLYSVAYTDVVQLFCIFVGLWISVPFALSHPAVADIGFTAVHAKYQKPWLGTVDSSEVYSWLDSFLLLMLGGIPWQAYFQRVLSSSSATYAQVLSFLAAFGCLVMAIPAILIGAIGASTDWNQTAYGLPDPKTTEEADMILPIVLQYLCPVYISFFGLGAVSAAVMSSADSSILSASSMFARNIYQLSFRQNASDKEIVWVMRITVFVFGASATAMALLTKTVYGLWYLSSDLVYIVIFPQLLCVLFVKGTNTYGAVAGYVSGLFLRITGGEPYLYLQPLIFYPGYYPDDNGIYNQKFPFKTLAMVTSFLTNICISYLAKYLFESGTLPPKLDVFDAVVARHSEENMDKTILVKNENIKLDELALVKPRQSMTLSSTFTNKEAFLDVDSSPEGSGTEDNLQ

[2] = biological target: T2, Microphthalmia-associated transcription factor (Homo sapiens, UniProt O75030); assay: reducers of TRPM1 reporter luminescence, concentration series – cell-based, SK-MEL-5, cherry-picked, set 3, MITF inhibitor project, dose response (AID 493073); assay type: functional;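 note: SK-MEL-5 melanoma cells with luciferase driven by the MITF target TRPM1 promoter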
T2 sequence (O75030 whole entry): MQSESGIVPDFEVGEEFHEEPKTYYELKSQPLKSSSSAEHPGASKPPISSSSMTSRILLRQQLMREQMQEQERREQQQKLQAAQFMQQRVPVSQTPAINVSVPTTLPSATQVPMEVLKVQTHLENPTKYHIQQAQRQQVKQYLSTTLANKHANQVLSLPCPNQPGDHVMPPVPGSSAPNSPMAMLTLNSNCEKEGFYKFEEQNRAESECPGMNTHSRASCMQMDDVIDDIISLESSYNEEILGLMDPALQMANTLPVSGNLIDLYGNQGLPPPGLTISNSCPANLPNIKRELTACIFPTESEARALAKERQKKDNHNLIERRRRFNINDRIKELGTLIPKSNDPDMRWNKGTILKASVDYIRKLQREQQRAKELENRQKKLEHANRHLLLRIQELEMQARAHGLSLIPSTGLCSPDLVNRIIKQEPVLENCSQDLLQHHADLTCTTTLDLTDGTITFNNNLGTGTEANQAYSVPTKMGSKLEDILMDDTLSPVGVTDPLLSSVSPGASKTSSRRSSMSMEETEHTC

[3] = blockade of melanocortin 4 receptor signaling – cell-based, plate reader, cherry pick, counter-screen for LGR2 antagonist project, dose response (AID 743444); assay type: functional;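 note: transfected HEK 293 cells stimulated with alpha-MSH peptide; potency of inhibitors of the alpha-MSH evoked signal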
[4] = blockers of bursicon-stimulated LGR2 cAMP reporter – cell-based, HEK293, CRE-luciferase reporter, cherry pick, set 2, dose response (AID 743343); assay type: functional;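 note: transfected cells were stimulated with diluted bursicon conditioned medium after compound addition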
[5] = biological target: T3, Long-chain-fatty-acid--AMP ligase FadD28 (Mycobacterium tuberculosis, UniProt P9WQ59); assay: Fluorescence polarization aasay to screen for inhibitors that compete for the binding of FadD28 to a bisubstrate Measured in Biochemical System Using Plate Reader - 2147-01_Inhibitor_Dose_CherryPick_Activity.; assay type: functional, Mycobacterium tuberculosis H37Rv
T3 sequence (P9WQ59 whole entry): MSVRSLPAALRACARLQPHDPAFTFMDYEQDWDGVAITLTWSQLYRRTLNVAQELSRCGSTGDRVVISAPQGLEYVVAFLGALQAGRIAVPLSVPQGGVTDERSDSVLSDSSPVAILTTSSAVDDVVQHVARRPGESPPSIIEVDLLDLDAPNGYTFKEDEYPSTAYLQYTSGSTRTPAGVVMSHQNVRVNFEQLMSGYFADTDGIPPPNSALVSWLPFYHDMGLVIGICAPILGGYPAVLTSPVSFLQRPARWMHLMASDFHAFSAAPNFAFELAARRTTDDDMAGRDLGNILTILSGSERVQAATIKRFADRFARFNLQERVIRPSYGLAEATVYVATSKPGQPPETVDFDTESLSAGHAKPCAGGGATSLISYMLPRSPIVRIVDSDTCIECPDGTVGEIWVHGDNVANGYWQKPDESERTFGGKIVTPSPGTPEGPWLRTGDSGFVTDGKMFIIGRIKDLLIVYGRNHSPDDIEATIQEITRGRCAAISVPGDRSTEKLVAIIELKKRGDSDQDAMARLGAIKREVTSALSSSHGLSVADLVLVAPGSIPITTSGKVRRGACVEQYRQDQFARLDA

[6] = biological target: T4, Ubiquitin-conjugating enzyme E2 N (Homo sapiens, UniProt P61088); assay type: functional;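 note: Dose-response confirmation in a TR-FRET assay detecting UBC13-driven polyubiquitin chain formation, inhibition measured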
T4 sequence (P61088 whole entry): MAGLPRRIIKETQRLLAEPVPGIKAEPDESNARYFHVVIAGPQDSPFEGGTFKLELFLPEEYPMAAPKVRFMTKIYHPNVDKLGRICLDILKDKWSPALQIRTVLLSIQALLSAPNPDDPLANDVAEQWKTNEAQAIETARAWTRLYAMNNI

[7] = A549 cell cytotoxicity, dose response, cytotoxicity control, plate reader, cherry-pick, antagonist series (AID 743412); assay type: functional, cell-based
Paired box protein Pax-8 = Paired box protein Pax-8 (Homo sapiens, UniProt Q06710); assay: PAX8 transcriptional activity inhibition in RMG-I – RMG-I cells, luciferase, cherry-pick, dose response (AID 687027); assay type: functional, cell-based;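 note: luciferase reporter driven by Pax8 target thyroperoxidase promoter measured by SteadyGlo luminescence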
Paired box protein Pax-8, sequence (Q06710 whole entry): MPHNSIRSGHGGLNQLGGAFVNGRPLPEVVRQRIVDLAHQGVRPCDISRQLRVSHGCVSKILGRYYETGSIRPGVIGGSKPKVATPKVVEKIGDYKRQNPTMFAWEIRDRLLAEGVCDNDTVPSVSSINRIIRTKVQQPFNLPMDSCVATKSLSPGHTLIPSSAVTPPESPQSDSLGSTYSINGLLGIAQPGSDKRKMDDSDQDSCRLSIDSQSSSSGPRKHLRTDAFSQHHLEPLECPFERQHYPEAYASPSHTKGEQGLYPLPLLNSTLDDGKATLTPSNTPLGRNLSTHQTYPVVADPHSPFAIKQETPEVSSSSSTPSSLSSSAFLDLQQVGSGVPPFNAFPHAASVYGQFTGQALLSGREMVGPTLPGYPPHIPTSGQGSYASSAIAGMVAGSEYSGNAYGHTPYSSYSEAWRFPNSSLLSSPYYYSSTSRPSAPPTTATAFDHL

[8] = biological target: Heat shock protein HSP 90-alpha (Homo sapiens, UniProt P07900); assay type: functional, organism-based
Fatty acid synthase [9] = biological target: T5, Fatty acid synthase (Homo sapiens, UniProt P49327); assay: inhibition of human FAS-TE enzyme activity – biochemical, kinetic fluorescence intensity, dose response (AID 624326); assay type: functional;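 note: rate of fluorescence rise from hydrolysis of a fluorogenic O-methyl fluorescein ester substrate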
T5 sequence (P49327 whole entry): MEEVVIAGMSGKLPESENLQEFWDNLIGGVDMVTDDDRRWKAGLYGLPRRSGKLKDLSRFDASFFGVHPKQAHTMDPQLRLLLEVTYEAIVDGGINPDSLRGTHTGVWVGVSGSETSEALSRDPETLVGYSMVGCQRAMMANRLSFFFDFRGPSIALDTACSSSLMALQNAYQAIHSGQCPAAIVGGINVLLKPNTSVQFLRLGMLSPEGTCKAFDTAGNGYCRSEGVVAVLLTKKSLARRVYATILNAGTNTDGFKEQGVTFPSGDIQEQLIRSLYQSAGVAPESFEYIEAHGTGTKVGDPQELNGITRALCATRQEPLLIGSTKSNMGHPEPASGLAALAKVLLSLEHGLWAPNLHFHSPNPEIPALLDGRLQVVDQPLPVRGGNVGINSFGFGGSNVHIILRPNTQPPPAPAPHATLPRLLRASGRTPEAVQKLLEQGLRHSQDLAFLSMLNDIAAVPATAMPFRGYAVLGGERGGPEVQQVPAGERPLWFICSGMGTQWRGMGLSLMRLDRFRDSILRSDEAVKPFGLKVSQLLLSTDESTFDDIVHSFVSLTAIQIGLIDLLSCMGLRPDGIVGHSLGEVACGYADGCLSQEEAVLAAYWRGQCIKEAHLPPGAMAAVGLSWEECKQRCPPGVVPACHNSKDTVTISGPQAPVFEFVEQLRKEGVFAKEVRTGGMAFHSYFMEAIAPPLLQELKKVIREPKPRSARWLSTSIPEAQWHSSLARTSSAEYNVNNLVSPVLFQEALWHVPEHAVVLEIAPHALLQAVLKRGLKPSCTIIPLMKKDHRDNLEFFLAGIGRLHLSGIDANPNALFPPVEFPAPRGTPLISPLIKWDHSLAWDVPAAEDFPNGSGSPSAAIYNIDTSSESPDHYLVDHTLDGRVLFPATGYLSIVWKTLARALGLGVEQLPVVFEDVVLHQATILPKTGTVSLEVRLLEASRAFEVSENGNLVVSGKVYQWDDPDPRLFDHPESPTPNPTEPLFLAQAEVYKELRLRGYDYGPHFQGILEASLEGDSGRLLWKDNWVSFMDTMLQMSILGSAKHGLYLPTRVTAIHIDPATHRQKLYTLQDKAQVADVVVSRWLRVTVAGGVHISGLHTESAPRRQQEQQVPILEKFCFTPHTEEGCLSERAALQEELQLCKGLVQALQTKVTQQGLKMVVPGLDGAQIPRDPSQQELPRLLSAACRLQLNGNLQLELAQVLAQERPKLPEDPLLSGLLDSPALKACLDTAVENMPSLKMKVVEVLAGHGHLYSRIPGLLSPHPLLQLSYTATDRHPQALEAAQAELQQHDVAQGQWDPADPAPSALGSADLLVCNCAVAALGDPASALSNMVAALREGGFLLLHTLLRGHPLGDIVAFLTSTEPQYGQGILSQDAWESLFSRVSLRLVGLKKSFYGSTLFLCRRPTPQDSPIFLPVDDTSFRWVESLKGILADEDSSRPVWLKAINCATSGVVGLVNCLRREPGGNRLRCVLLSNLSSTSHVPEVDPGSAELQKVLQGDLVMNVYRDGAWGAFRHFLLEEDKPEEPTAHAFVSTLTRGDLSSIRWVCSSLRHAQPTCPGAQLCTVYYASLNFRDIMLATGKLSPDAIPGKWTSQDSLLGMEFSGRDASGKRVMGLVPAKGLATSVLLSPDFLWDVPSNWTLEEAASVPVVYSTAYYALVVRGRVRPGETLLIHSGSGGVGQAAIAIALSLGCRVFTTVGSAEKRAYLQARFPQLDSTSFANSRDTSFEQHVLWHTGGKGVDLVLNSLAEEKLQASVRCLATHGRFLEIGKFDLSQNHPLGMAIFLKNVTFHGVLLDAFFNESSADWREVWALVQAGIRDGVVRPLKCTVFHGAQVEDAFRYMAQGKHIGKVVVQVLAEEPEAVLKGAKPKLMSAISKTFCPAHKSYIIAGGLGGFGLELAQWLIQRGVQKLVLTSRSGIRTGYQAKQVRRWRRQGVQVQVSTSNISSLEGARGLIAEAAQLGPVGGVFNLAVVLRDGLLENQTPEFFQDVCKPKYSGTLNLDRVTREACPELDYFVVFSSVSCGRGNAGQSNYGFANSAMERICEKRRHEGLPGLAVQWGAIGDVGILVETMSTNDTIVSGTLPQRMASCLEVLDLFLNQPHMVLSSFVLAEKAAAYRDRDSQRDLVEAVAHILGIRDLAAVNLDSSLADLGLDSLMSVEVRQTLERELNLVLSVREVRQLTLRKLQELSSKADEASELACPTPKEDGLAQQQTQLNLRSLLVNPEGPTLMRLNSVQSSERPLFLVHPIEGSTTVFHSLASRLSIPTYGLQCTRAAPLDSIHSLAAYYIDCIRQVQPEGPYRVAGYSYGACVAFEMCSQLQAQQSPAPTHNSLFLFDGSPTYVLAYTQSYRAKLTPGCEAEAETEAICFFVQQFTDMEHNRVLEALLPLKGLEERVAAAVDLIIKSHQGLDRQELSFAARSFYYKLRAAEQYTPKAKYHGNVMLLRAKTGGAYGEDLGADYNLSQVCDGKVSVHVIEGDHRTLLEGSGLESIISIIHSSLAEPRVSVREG

Fatty acid synthase [10] = biological target: T5, Fatty acid synthase; assay: inhibition of human FAS-TE enzyme activity – biochemical, endpoint fluorescence intensity, uHTS hits, dose response (AID 624327); assay type: functional;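 note: fluorescence from hydrolysis of an O-methyl fluorescein acyl ester substrate by the enzyme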
[11] = biological target: T6, Heat shock factor protein 1 (Mus musculus, UniProt P38532); assay: decrease of HSF1-responsive luciferase luminescence – cell-based, NIH3T3, dose retest, confirmation (AID 2382); assay type: functional;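 note: NIH3T3 fibroblasts with HSF1-driven luciferase reporter stressed by proteasome inhibitor MG132; luminescence from HSF1-driven luciferase expression after 8 hours of MG132 stress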
T6 sequence (P38532 whole entry): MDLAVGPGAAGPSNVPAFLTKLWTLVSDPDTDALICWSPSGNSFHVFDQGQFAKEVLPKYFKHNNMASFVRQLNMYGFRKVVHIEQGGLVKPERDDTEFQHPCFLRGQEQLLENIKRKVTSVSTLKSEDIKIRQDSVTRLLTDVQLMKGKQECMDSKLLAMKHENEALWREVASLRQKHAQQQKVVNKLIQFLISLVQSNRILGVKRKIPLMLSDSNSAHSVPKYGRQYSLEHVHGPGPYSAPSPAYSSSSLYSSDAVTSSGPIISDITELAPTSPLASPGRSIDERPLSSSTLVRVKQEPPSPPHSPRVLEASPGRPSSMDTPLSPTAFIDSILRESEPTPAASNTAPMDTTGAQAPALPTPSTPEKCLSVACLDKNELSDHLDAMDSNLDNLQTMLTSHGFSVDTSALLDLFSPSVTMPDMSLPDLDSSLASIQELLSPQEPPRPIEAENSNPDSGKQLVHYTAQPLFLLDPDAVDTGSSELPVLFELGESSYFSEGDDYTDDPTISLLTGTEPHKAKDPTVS

[12] = test system: Streptococcus sp. 'group A'; assay: Streptococcus pyogenes SK(-)GAS viability under kanamycin – luminescence, BacTiterGlo, confirmation, counter-screen for streptokinase expression inhibitor project, dose response (AID 1900); assay type: functional, organism-based
Streptococcus = assay: GAS UMAA2166 growth inhibition – luminescence, BacTiterGlo, counter-screen for streptokinase expression inhibitor project, dose response (AID 1915); assay type: functional, organism-based;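 note: potency for reduction of bacterial viability or growth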
Streptokinase A = biological target: T7, Streptokinase A (Streptococcus pyogenes serotype M1, UniProt P10520); assay: viability-normalized secreted streptokinase activity reduction – plasminogen activation absorbance, OD405, dose response (AID 1914); assay type: functional, Streptococcus pyogenes M1 GAS;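 note: secreted streptokinase activity via plasminogen activation per viability signal from cell pellet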
T7 sequence (P10520 whole entry): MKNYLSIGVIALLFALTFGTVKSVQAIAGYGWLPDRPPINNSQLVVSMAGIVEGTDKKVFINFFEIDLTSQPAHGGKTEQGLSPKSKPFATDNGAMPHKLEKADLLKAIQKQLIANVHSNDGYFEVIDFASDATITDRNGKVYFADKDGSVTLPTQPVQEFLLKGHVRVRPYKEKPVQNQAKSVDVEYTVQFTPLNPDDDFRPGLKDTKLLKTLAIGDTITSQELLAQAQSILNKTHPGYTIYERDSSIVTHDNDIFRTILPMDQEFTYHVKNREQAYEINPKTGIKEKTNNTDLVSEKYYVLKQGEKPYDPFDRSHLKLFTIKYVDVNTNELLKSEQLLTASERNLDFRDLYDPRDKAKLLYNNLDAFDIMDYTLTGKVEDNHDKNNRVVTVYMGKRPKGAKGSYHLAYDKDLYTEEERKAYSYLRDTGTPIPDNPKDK

cells [13] = assay type: functional, cell-based
cells [14] = assay type: functional, cell-based; remark: listed apart in the source
[15] = Luminescence Cell-Based Dose Retest to Confirm Inhibitors of Cancer Stem Cells. [Related pubchem assays (depositor defined):AID2717, AID2721]; assay type: functional; details: Homo sapiens
INS1 = assay: INS-1E survival protection against cytokine death – cell-based, luminescence, retest, dose response (AID 449756); assay type: functional; details: Rattus norvegicus;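 note: cell death triggered by IL-1 beta plus TNF-alpha plus IFN-gamma mixture; protective hits raise ATP signal compared with cytokine alone wells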

Structure (SMILES): COc1ccccc1/C=C1\SC(=O)N(CC(=O)NCCCn2ccnc2)C1=O
- IC50 [1]: 19.1 µM (active)

Structure (SMILES): CCN1c2ccccc2NC2C1C(C(C)=O)C(=O)N2c1ccc(Cl)cc1 (centres undefined)
- AC50 [2]: 12.7 µM (active)

Structure (SMILES): CCc1nc(Sc2nnnn2-c2ccccc2)c2c3c(sc2n1)CCCC3
- AC50 [3]: 5.14 µM (active)
- AC50 [4]: 5.1 µM (active)

Structure (SMILES): Cc1cccc(NC(=O)CN2C(=O)N/C(=C/c3ccc(-c4cccc(C(=O)O)c4C)o3)C2=O)c1
- AC50 [5]: 72.3 µM (active)

Structure (SMILES): S=C(NCc1ccccc1)NCc1cccc(CNC(=S)NCc2ccccc2)c1
- AC50 [5]: 27.3 µM (active)

Structure (SMILES): Cc1ccc(C(=O)N2CCN(c3ccccc3)CC2)cc1S(=O)(=O)N1CCCC1
- IC50 [1]: 11 µM (active)

Structure (SMILES): COc1ccc(OCCCC(=O)Nc2ccc(S(=O)(=O)N3CCOCC3)cc2)cc1
- IC50 [6]: > 20 µM (inactive)

Structure (SMILES): CC(=O)NC(C)c1cc(Cl)c2ccccc2c1O (centres undefined)
- IC50 [6]: > 20 µM (inactive)

Structure (SMILES): CC(=O)Nc1ccc(S(=O)(=O)c2ccnc3cc(Cl)ccc23)cc1
- AC50 [7]: 26.9 µM (active)
- AC50 (Paired box protein Pax-8): 0.449 µM (active)
- AC50 [4]: 66.3 µM (active)

Structure (SMILES): Cc1ccc(C(C)C)c(OCCOCCN2CCNCC2)c1
- IC50 [1]: 13.8 µM (active)

Structure (SMILES): O=C(CCC1CCCC1)NCCCNC(=O)CCC1CCCC1
- IC50 [1]: 15.8 µM (active)

Structure (SMILES): C=CC(n1cncn1)C(O)(c1ccccc1)c1ccccc1 (centres undefined)
- AC50 [8]: 0.826 µM (active)

Structure (SMILES): Cc1ccc(C(=O)NCC(=O)OCc2nnc(-c3ccc([N+](=O)[O-])cc3)o2)cc1
- IC50 (Fatty acid synthase [9]): 5.56 µM (active)
- IC50 (Fatty acid synthase [10]): 4.73 µM (active)

Structure (SMILES): Cc1cccc(C)c1/N=C1\C(Cl)=C(O)OC1OC(=O)c1ccccc1 (centres undefined)
- IC50 (Fatty acid synthase [9]): 4.54 µM (active)
- IC50 (Fatty acid synthase [10]): 4.46 µM (active)

Structure (SMILES): Cc1ccc(N/N=C(\C=O)C(=O)c2ccc(Cl)cc2)cc1
- EC50 [11]: 4.78 µM (active)
- EC50 [12]: 8.86 µM (active)
- EC50 (Streptococcus): 14.8 µM (active)
- AC50 [8]: 5.6 µM (active)
- EC50 (Streptokinase A): > 50 µM (not active)

Structure (SMILES): COc1ccc2nc(C)cc(SCC(=O)N/N=C/c3ccc(O)cc3O)c2c1
- EC50 (cells [13]): > 350 µM (not active)
- EC50 (cells [14]): 12.9 µM (active)
- AC50 [15]: 2.74 µM (active)
- AC50 [2]: 10.1 µM (active)
- AC50 (INS1): 2.65 µM (active)
